“Also recorded” adds a separate entry of the source.
How the values were obtained:
[1] = Weekly MADRS-s self-assessment of MDD subjects on a prescribed antidepressant combined with home tDCS sessions (Example 2); assay type: in vivo, human; conditions: for effectiveness in reducing symptoms of depression (change in MADRS-s) compared to fluoxetine: combined with tDCS, Week 6
Description: In this example, a subject completed a MADRS-s questionnaire at baseline (defined as a time preceding initiation of neurostimulation) to determine a starting measurement to be used in an assessment of treatment efficacy. Ideally, baseline measures were made close to the period of time in which the first neurostimulation session began. The subject completed the same MADRS-s questionnaire weekly during a period of ongoing treatment comprising administering of a prescribed pharmacologic antidepressant agent and delivery to the subject of plurality tDCS sessions. The number of and date completed of each tDCS session was recording in order to analyze subjects according to how often they successfully completed tDCS sessions as part of their treatment regimens. Subjects were parcellated into groups of 1) depression symptoms absent, 2) mild depression, 3) moderate depression, or 4) severe depression to further enable analysis of changes in MADRS-s score according to severity of depression and adherence to the recommended tDCS session schedule. […]
Subjects were provided with a tDCS neurostimulation device, instructions of use, and an program capable of being run on a handheld electronic device which provided instructions, recorded responses to various questionnaires completed by the subject, and recorded information regarding the tDCS stimulation sessions completed by the user. Amongst the tDCS stimulation session information recorded was the date of each session completed, the time of day of each completed session, the duration of each completed session, the intensity of electrical stimulation in each session, the latency from the most recently completed session to the previous session.
Subjects completed a MADSR-s assessment at baseline prior to their first tDCS session. […] In this treatment tracking questionnaire, subjects recorded if their specific antidepressant agent or category of antidepressant had changed. […] Subjects also recorded if the dosage administered of the antidepressant medication had changed in the past month. […]

[2] = system: serotonin reuptake and norepinephrine reuptake; conditions: cited from earlier work

Compound | effectiveness in reducing symptoms of depression (change in MADRS-s) compared to fluoxetine [1] | Result of ANOVA of change in MADRS-s score ([1]; Week 6 after initiation of treatment, Fluoxetine vs. the labelled agent, each combined with tDCS, irrespective of tDCS adherence) | selectivity for serotonin reuptake inhibition than norepinephrine reuptake inhibition [2] [fold]
CN[C@H]1CC[C@@H](c2ccc(Cl)c(Cl)c2)c2ccccc21 [Sertraline, sertraline] | significant difference; also recorded: significantly better | – | –
COc1ccc(C(CN(C)C)C2(O)CCCCC2)cc1 (centres unmarked) [Venlafaxine, venlafaxine] | approaching significance | Approaching | –
CN(C)CC(c1ccc(O)cc1)C1(O)CCCCC1 (centres unmarked) [desvenlafaxine] | – | – | 10
CNCC[C@H](Oc1cccc2ccccc12)c1cccs1 [duloxetine] | – | – | 10
